Where two headings read alike, the source gives them in different places.
What was measured:
E. coli 14182 = test: Chemo-sensitization (Suppl. Table S1)
K. pneumoniae = test: Efficacy, peritonitis-sepsis model in neutropenic mice; type: in vivo, Klebsiella pneumoniae; details: IP K. pneumoniae 3 × 10^7 CFU, rifampin oral 0.45 mg/mouse or OAK SC 0.3 mg/mouse, 2 experiments, 10 mice/group, vehicle 20 ± 10%
Procedure: Animal studies were performed using male ICR mice (weight range, 23 ± 2 g) obtained from Harlan Laboratories (Rehovot, Israel). Procedures, care and handling of animals were reviewed and approved by Technion Animal Care and Use Committee.
Mice were rendered neutropenic by intraperitoneal (IP) injection of cyclophosphamide (150 and 100 mg/Kg on days 0 and 3, respectively). The procedure was confirmed to result in severe neutropenia by day 4, at which time infection was induced. The peritonitis-sepsis model was used whereby infection was obtained after IP injection of a logarithmic-phase culture of K. pneumoniae (3 × 10^7 CFU/mice in 0.3 ml PBS). […] Mice survival was monitored for up to 7 days post-treatment. Survival data were obtained from 2 independent experiments (n = 10 mice/group/experiment). Statistical analysis was performed using a paired t test were α equals 0.05.

S. Typhimurium 14028 = test: Chemo-sensitization (Suppl. Table S1); details: for MIC: Salmonella enterica, TYPHIMURIUM
E. coli 35218 = test: Chemo-sensitization (Suppl. Table S1); details: for MIC: Escherichia coli, 35218, read-out: MIC of rifampin in presence of C10KKc12K, E. coli 35218
E. coli 14384 = test: Chemo-sensitization (Suppl. Table S1); details: for MIC: Escherichia coli, 14384, read-out: MIC of rifampin in presence of C10KKc12K, E. coli 14384
E. coli = test: MIC and reciprocal sensitization (Fig. 2a,b; Suppl. Figs S2, S3); type: cell-based, Escherichia coli
E. coli 16327 = test: Chemo-sensitization (Suppl. Table S1)
E. coli 16329 = test: Chemo-sensitization (Suppl. Table S1)
Klebsiella = test: MIC (Suppl. Figs S2, S3); type: cell-based
S. stanley 7308 = test: Chemo-sensitization (Suppl. Table S1); type: cell-based, Salmonella; details: for MIC: Salmonella enterica, 7308, read-out: MIC of rifampin in presence of C10KKc12K, S. stanley 7308
[1] = Pharmacokinetic study, plasma concentrations by LC-MS; type: in vivo; details: mice, oral 20 mg/Kg, N = 2 mice/time point, mean ± s.d.
Procedure: Drugs blood concentrations were determined by LC-MS using calibrated curves essentially as described[5][9]. […] At specified time intervals mice were euthanized (CO2 asphyxiation) and blood samples collected from vena cava (N = 2 mice/time point). For analysis, samples were centrifuged (2 min, 6000 × g), 200 μl plasma were mixed with 0.5 ml extraction buffer (50% acetonitrile (ACN): 50% methanol) incubated (30 min on plate shaker at 200 rpm, RT), centrifuged (2 min, 14000 × g) and 300 μl supernatant diluted twofold in DDW and analyzed by LC-MS (5 μl injected to Waters Xevo G2 Tof/ACQUITY UPLC H-Class system). Flow rate, 0.5 ml/min. Run time, 5 min. Mobile phase, ACN/DDW combination containing 0.1% formic acid using an ACQUITY UPLC BEH column (C18 1.7 μm) and eluted with a 0–90% ACN gradient. Quantification was by MS detection in positive ionization mode using an identical procedure that was performed in mouse whole blood in order to establish standard calibration curves.

K. pneumoniae 1287 = test: Chemo-sensitization (Suppl. Table S1)

CO[C@H]1/C=C/O[C@@]2(C)Oc3c(C)c(O)c4c(O)c(c(/C=N/N5CCN(C)CC5)c(O)c4c3C2=O)NC(=O)/C(C)=C\C=C\[C@H](C)[C@H](O)[C@@H](C)[C@@H](O)[C@@H](C)[C@H](OC(C)=O)[C@@H]1C [rifampin]
SF, sensitization factor, rifampin with C10KKc12K (E. coli 14182; E. coli 14182): 516 | SF, sensitization factor, rifampin with C12(ω7)KKc12K (E. coli 14182; E. coli 14182): > 800 | MIC (E. coli 14182; Escherichia coli, 14182, read-out: MIC of rifampin in presence of C10KKc12K, E. coli 14182, OAK 0 µg/ml): 16 µg/mL | MIC (E. coli 14182; Escherichia coli, 14182, read-out: MIC of rifampin in presence of C10KKc12K, E. coli 14182, OAK 1.25 µg/ml): 4 µg/mL | MIC (E. coli 14182; Escherichia coli, 14182, read-out: MIC of rifampin in presence of C10KKc12K, E. coli 14182, OAK 2.5 µg/ml): 0.125 µg/mL | MIC (E. coli 14182; Escherichia coli, 14182, read-out: MIC of rifampin in presence of C10KKc12K, E. coli 14182, OAK 5 µg/ml): 0.031 µg/mL | MIC (E. coli 14182; Escherichia coli, 14182, read-out: MIC of rifampin in presence of C12(ω7)KKc12K, E. coli 14182, OAK 0 µg/ml): 8 µg/mL | MIC (E. coli 14182; Escherichia coli, 14182, read-out: MIC of rifampin in presence of C12(ω7)KKc12K, E. coli 14182, OAK 1.25 µg/ml): 8 µg/mL | MIC (E. coli 14182; Escherichia coli, 14182, read-out: MIC of rifampin in presence of C12(ω7)KKc12K, E. coli 14182, OAK 2.5 µg/ml): 0.031 µg/mL | MIC (E. coli 14182; Escherichia coli, 14182, read-out: MIC of rifampin in presence of C12(ω7)KKc12K, E. coli 14182, OAK 5 µg/ml): < 0.01 µg/mL | survivors at day 7, single dose monotherapy (K. pneumoniae): 10% | SF, sensitization factor, rifampin with C10KKc12K (S. Typhimurium 14028; S. Typhimurium 14028): 2000 | SF, sensitization factor, rifampin with C12(ω7)KKc12K (S. Typhimurium 14028; S. Typhimurium 14028): 2667 | MIC (S. Typhimurium 14028; read-out: MIC of rifampin in presence of C10KKc12K, S. Typhimurium 14028, OAK 0 µg/ml): 16 µg/mL | MIC (S. Typhimurium 14028; read-out: MIC of rifampin in presence of C10KKc12K, S. Typhimurium 14028, OAK 1.25 µg/ml): 8 µg/mL | MIC (S. Typhimurium 14028; read-out: MIC of rifampin in presence of C10KKc12K, S. Typhimurium 14028, OAK 5 µg/ml): 0.008 µg/mL | MIC (S. Typhimurium 14028; read-out: MIC of rifampin in presence of C12(ω7)KKc12K, S. Typhimurium 14028, OAK 0 µg/ml): 16 µg/mL | MIC (S. Typhimurium 14028; read-out: MIC of rifampin in presence of C12(ω7)KKc12K, S. Typhimurium 14028, OAK 1.25 µg/ml): 8 µg/mL | MIC (S. Typhimurium 14028; read-out: MIC of rifampin in presence of C12(ω7)KKc12K, S. Typhimurium 14028, OAK 2.5 µg/ml): 0.016 µg/mL | MIC (S. Typhimurium 14028; read-out: MIC of rifampin in presence of C12(ω7)KKc12K, S. Typhimurium 14028, OAK 5 µg/ml): 0.006 µg/mL | SF, sensitization factor, rifampin with C10KKc12K (E. coli 35218; E. coli 35218): 258 | MIC (E. coli 35218; OAK 0 µg/ml): 8 µg/mL | MIC (E. coli 35218; OAK 1.25 µg/ml): 0.5 µg/mL | MIC (E. coli 35218; OAK 5 µg/ml): 0.031 µg/mL | SF, sensitization factor, rifampin with C10KKc12K (E. coli 14384; E. coli 14384): 258 | MIC (E. coli 14384; OAK 0 µg/ml): 8 µg/mL | MIC (E. coli 14384; OAK 1.25 µg/ml): 0.5 µg/mL | MIC (E. coli 14384; OAK 2.5 µg/ml): 0.125 µg/mL | MIC (E. coli 14384; OAK 5 µg/ml): 0.031 µg/mL | standalone antibiotic MIC (E. coli): 16 µg/mL | SF, sensitization factor, rifampin with C10KKc12K (E. coli 16327; E. coli 16327): 2000 | SF, sensitization factor, rifampin with C12(ω7)KKc12K (E. coli 16327; E. coli 16327): > 3200 | MIC (E. coli 16327; Escherichia coli, 16327, read-out: MIC of rifampin in presence of C10KKc12K, E. coli 16327, OAK 0 µg/ml): 16 µg/mL | MIC (E. coli 16327; Escherichia coli, 16327, read-out: MIC of rifampin in presence of C10KKc12K, E. coli 16327, OAK 1.25 µg/ml): 0.5 µg/mL | MIC (E. coli 16327; Escherichia coli, 16327, read-out: MIC of rifampin in presence of C10KKc12K, E. coli 16327, OAK 2.5 µg/ml): 0.031 µg/mL | MIC (E. coli 16327; Escherichia coli, 16327, read-out: MIC of rifampin in presence of C10KKc12K, E. coli 16327, OAK 5 µg/ml): 0.008 µg/mL | MIC (E. coli 16327; Escherichia coli, 16327, read-out: MIC of rifampin in presence of C12(ω7)KKc12K, E. coli 16327, OAK 0 µg/ml): 16 to 32 µg/mL | MIC (E. coli 16327; Escherichia coli, 16327, read-out: MIC of rifampin in presence of C12(ω7)KKc12K, E. coli 16327, OAK 1.25 µg/ml): 8 µg/mL | MIC (E. coli 16327; Escherichia coli, 16327, read-out: MIC of rifampin in presence of C12(ω7)KKc12K, E. coli 16327, OAK 2.5 µg/ml): < 0.01 µg/mL | MIC (E. coli 16327; Escherichia coli, 16327, read-out: MIC of rifampin in presence of C12(ω7)KKc12K, E. coli 16327, OAK 5 µg/ml): < 0.01 µg/mL | SF, sensitization factor, rifampin with C10KKc12K (E. coli 16329; E. coli 16329): 2000 | SF, sensitization factor, rifampin with C12(ω7)KKc12K (E. coli 16329; E. coli 16329): 2000 | MIC (E. coli 16329; Escherichia coli, 16329, read-out: MIC of rifampin in presence of C10KKc12K, E. coli 16329, OAK 0 µg/ml): 16 µg/mL | MIC (E. coli 16329; Escherichia coli, 16329, read-out: MIC of rifampin in presence of C10KKc12K, E. coli 16329, OAK 1.25 µg/ml): 0.5 µg/mL | MIC (E. coli 16329; Escherichia coli, 16329, read-out: MIC of rifampin in presence of C10KKc12K, E. coli 16329, OAK 5 µg/ml): 0.008 µg/mL | MIC (E. coli 16329; Escherichia coli, 16329, read-out: MIC of rifampin in presence of C12(ω7)KKc12K, E. coli 16329, OAK 0 µg/ml): 16 µg/mL | MIC (E. coli 16329; Escherichia coli, 16329, read-out: MIC of rifampin in presence of C12(ω7)KKc12K, E. coli 16329, OAK 1.25 µg/ml): 8 µg/mL | MIC (E. coli 16329; Escherichia coli, 16329, read-out: MIC of rifampin in presence of C12(ω7)KKc12K, E. coli 16329, OAK 2.5 µg/ml): 0.031 µg/mL | MIC (E. coli 16329; Escherichia coli, 16329, read-out: MIC of rifampin in presence of C12(ω7)KKc12K, E. coli 16329, OAK 5 µg/ml): 0.008 µg/mL | standalone antibiotic MIC (Klebsiella): 32 µg/mL | SF, sensitization factor, rifampin with C10KKc12K (S. stanley 7308; S. stanley 7308): 2000 | MIC (S. stanley 7308; OAK 0 µg/ml): 16 µg/mL | MIC (S. stanley 7308; OAK 1.25 µg/ml): 16 µg/mL | MIC (S. stanley 7308; OAK 2.5 µg/ml): 0.125 µg/mL | MIC (S. stanley 7308; OAK 5 µg/ml): 0.008 µg/mL | plasma concentration reached after oral administration [1]: 13.26 ± 2.25 µg/mL | SF, sensitization factor, rifampin with C12(ω7)KKc12K (K. pneumoniae 1287; K. pneumoniae 1287): 5333 | MIC (K. pneumoniae 1287; Klebsiella pneumoniae, 1287, read-out: MIC of rifampin in presence of C10KKc12K, K. pneumoniae 1287, OAK 1.25 µg/ml): 8 µg/mL | MIC (K. pneumoniae 1287; Klebsiella pneumoniae, 1287, read-out: MIC of rifampin in presence of C10KKc12K, K. pneumoniae 1287, OAK 2.5 µg/ml): 0.031 µg/mL | MIC (K. pneumoniae 1287; Klebsiella pneumoniae, 1287, read-out: MIC of rifampin in presence of C12(ω7)KKc12K, K. pneumoniae 1287, OAK 1.25 µg/ml): 4 µg/mL | MIC (K. pneumoniae 1287; Klebsiella pneumoniae, 1287, read-out: MIC of rifampin in presence of C12(ω7)KKc12K, K. pneumoniae 1287, OAK 2.5 µg/ml): 0.1 µg/mL | MIC (K. pneumoniae 1287; Klebsiella pneumoniae, 1287, read-out: MIC of rifampin in presence of C12(ω7)KKc12K, K. pneumoniae 1287, OAK 5 µg/ml): 0.006 µg/mL

Source: article PMC4363860 (Scientific Reports, 2015)
